Experimental data reported in US7511065B2, “Mixed lineage kinase modulators” (Eli Lilly and Company, priority 2002, dated 2009).

Biological target: T1, MLK-7 (Homo sapiens, UniProt Q9NYL2)
T1 construct: GST; His tag; made in house; host or cells: Sf9 insect cells (baculovirus, pVL1392)
Assay: In vitro assay of purified MLK-7 kinase activity (33P transfer from ATP to myelin basic protein)
Format: biochemical
Details: recombinant GST-tagged MLK-7 at 1 nm, 30 uM ATP, 5 uM MBP substrate, 2 hours room temperature; read-out: MLK7 IC50
Excerpt: In Vitro Assay of Purified Mixed Lineage Kinase 7 (MLK-7) Activity:
Briefly, recombinant glutathione-s-transferase (GST) tagged MLK-7 is expressed in Sf9 cells using a recombinant baculovirus created using baculovirus transfer vector pVL1392 modified to contain a GST and histidine tag. The recombinant protein is purified over a glutathione column and subsequently used for in vitro kinase assays with myelin basic protein (MBP) as the substrate for phosphorylation. The in vitro kinase reaction is run with recombinant MLK-7 at 1 nm and various concentrations of test compound in a reaction mixture containing 2 mM DTT, 30 uM ATP, 5 mM MgCl2, 5 uM MBP, 4% DMSO, 5 uCi 33P in 44 mM HEPES, (pH 7.4). The reaction is carried out for 2 hours at room temperature and then stopped by the addition of phosphoric acid to 5.5%. The phosphorylated MBP is collected on a filter and radioactivity associated with the membrane measured using a scintillation counter. Inhibitors are identified by the ability to reduce the transfer of radioactive phosphate from ATP to MBP compared to controls run without test compound.
IC50 values, defined as the concentration of test compound required to decrease the transfer of radioactive phosphate from ATP to MBP by 50%, are then determined. Ki values (which refers to the dissociation constant of an enzyme-antagonist complex and serves as an index of ligand binding) for each respective test compound can also be calculated by application of the Cheng-Prusoff equation as described in Cheng et al., Relationship Between The Inhibition Constant (Ki) and The Concentration of Inhibitor Which Causes 50% Inhibition (IC50) of an Enzymatic Reaction, Biochem. Pharmacol., 22: […]; (1973).
Representative compounds of the present invention have an IC50 in the MLK-7 kinase assay of ≦10,000 nM Table I (see infra.) provides IC50 data from the afore mentioned MLK-7 kinase assay for a representative sample of the exemplified compounds of the present invention.

T1 sequence (Q9NYL2 1-455 isoform Q9NYL2-2): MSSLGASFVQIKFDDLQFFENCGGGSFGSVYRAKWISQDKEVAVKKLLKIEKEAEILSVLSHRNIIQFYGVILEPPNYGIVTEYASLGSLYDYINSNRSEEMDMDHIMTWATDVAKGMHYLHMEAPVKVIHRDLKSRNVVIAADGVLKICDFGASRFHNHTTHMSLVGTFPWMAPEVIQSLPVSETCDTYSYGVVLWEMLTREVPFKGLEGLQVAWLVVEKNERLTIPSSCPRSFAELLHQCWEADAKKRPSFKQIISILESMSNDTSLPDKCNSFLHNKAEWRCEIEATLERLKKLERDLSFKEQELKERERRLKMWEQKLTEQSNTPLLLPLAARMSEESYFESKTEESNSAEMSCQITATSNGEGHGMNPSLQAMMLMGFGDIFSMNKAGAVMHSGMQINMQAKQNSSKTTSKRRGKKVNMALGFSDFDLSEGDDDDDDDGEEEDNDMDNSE

Row | IC50 [nM] | SMILES
1 | ≤ 100 | c1ccc(-c2nn3c(c2-c2ccnc4cc(-c5ccc6[nH]ccc6c5)ccc24)CCC3)nc1 [Example 27, 7-(1H-Indol-5-yl)-4-(2-pyridin-2-yl-5,6-dihydro-4H-pyrrolo[1,2-b]pyrazol-3-yl)quinoline Ditrifluoroacetic Acid]
2 | ≤ 100 | CC(=O)c1ccc(-c2ccc3c(-c4c(-c5ccccn5)nn5c4CCC5)ccnc3c2)cc1 [Example 28, 1-{4-[4-(2-Pyridin-2-yl-5,6-dihydro-4H-pyrrolo[1,2-b]pyrazol-3-yl)quinolin-7-yl]phenyl}ethanone Trifluoroacetic Acid]
3 | ≤ 100 | O=C(O)CCc1ccc(-c2ccc3c(-c4c(-c5ccccn5)nn5c4CCC5)ccnc3c2)cc1 [Example 30, 3-{4-[4-(2-Pyridin-2-yl-5,6-dihydro-4H-pyrrolo[1,2-b]pyrazol-3-yl)quinolin-7-yl]phenyl}propionic Acid Trifluoroacetic Acid]
4 | ≤ 1000 | COc1ccc(-c2ccc3c(-c4c(-c5ccccn5)nn5c4CCC5)ccnc3c2)cc1C [Example 32, 7-(4-Methoxy-3-methylphenyl)-4-(2-Pyridin-2-yl-5,6-dihydro-4H-pyrrolo[1,2-b]pyrazol-3-yl)quinoline Trifluoroacetic Acid]
5 | ≤ 100 | Cc1ccc(-c2ccc3c(-c4c(-c5ccccn5)nn5c4CCC5)ccnc3c2)cc1N [Example 33, 2-Methyl-5-[4-(2-Pyridin-2-yl-5,6-dihydro-4H-pyrrolo[1,2-b]pyrazol-3-yl)quinolin-7-yl]phenylamine Ditrifluoroacetic Acid]
6 | ≤ 100 | c1ccc(-c2nn3c(c2-c2ccnc4cc(-c5ccncc5)ccc24)CCC3)nc1 [Example 34, 7-Pyridin-4-yl-4-(2-Pyridin-2-yl-5,6-dihydro-4H-pyrrolo[1,2-b]pyrazol-3-yl)quinoline Ditrifluoroacetic Acid]
7 | ≤ 100 | c1ccc(-c2nn3c(c2-c2ccnc4cc(-c5cccnc5)ccc24)CCC3)nc1 [Example 35, 7-Pyridin-3-yl-4-(2-Pyridin-2-yl-5,6-dihydro-4H-pyrrolo[1,2-b]pyrazol-3-yl)quinoline Ditrifluoroacetic Acid]
8 | ≤ 1000 | O=[N+]([O-])c1ccccc1-c1ccc2c(-c3c(-c4ccccn4)nn4c3CCC4)ccnc2c1 [Example 36, 7-(2-Nitrophenyl)-4-(2-pyridin-2-yl-5,6-dihydro-4H-pyrrolo[1,2-b]pyrazol-3-yl)quinoline Trifluoroacetic Acid]
9 | ≤ 100 | CC(=O)Nc1cccc(-c2ccc3c(-c4c(-c5ccccn5)nn5c4CCC5)ccnc3c2)c1 [Example 37, N-{3-[4-(2-pyridin-2-yl-5,6-dihydro-4H-pyrrolo[1,2-b]pyrazol-3-yl)quinolin-7-yl]phenyl}-acetamide Trifluoroacetic Acid]
10 | ≤ 100 | C[S+]([O-])c1ccc(-c2ccc3c(-c4c(-c5ccccn5)nn5c4CCC5)ccnc3c2)cc1 (stereo not drawn) [Example 38, 7-(4-Methanesulfinylphenyl)-4-(2-pyridin-2-yl-5,6-dihydro-4H-pyrrolo[1,2-b]pyrazol-3-yl)quinoline Trifluoroacetic Acid]
11 | ≤ 100 | c1ccc(-c2nn3c(c2-c2ccnc4cc(-c5ccc6c(c5)OCO6)ccc24)CCC3)nc1 [Example 40, 7-Benzo[1,3]dioxol-5-yl-4-(2-pyridin-2-yl-5,6-dihydro-4H-pyrrolo[1,2-b]pyrazol-3-yl)quinoline Trifluoroacetic Acid]
12 | ≤ 100 | O=C(O)c1ccc(-c2ccc3c(-c4c(-c5ccccn5)nn5c4CCC5)ccnc3c2)cc1 [Example 41, 4-[4-(2-pyridin-2-yl-5,6-dihydro-4H-pyrrolo[1,2-b]pyrazol-3-yl)quinolin-7-yl]benzoic Acid Trifluoroacetic Acid]
13 | ≤ 10000 | FC(F)(F)c1cc(-c2ccc3c(-c4c(-c5ccccn5)nn5c4CCC5)ccnc3c2)cc(C(F)(F)F)c1 [Example 42, 7-(3,5-Bis-trifluromethylphenyl)-4-(2-pyridin-2-yl-5,6-dihydro-4H-pyrrolo[1,2-b]pyrazol-3-yl)quinoline Trifluoroacetic Acid]
14 | ≤ 100 | O=C(O)c1cccc(-c2ccc3c(-c4c(-c5ccccn5)nn5c4CCC5)ccnc3c2)c1 [Example 43, 3-[4-(2-pyridin-2-yl-5,6-dihydro-4H-pyrrolo[1,2-b]pyrazol-3-yl)quinolin-7-yl]benzoic Acid Trifluoroacetic Acid]
15 | ≤ 10000 | O=C(O)c1ccccc1-c1ccc2c(-c3c(-c4ccccn4)nn4c3CCC4)ccnc2c1 [Example 44, 2-[4-(2-pyridin-2-yl-5,6-dihydro-4H-pyrrolo[1,2-b]pyrazol-3-yl)quinolin-7-yl]benzoic Acid Trifluoroacetic Acid]
16 | ≤ 1000 | CC(C)Cc1ccc(-c2ccc3c(-c4c(-c5ccccn5)nn5c4CCC5)ccnc3c2)cc1 [Example 45, 7-(4-Isobutylphenyl)-4-(2-pyridin-2-yl-5,6-dihydro-4H-pyrrolo[1,2-b]pyrazol-3-yl)quinoline Trifluoroacetic Acid]
17 | ≤ 100 | O=C(O)COc1ccc(-c2ccc3c(-c4c(-c5ccccn5)nn5c4CCC5)ccnc3c2)cc1 [Example 46, {4-[4-(2-pyridin-2-yl-5,6-dihydro-4H-pyrrolo[1,2-b]pyrazol-3-yl)quinolin-7-yl]phenoxy}acetic Acid Trifluoroacetic Acid]
18 | ≤ 1000 | c1ccc(-c2nn3c(c2-c2ccnc4cc(-c5cc6ccccc6s5)ccc24)CCC3)nc1 [Example 47, 7-Benzo[b]thiophen-2-yl-4-(2-pyridin-2-yl-5,6-dihydro-4H-pyrrolo[1,2-b]pyrazol-3-yl)quinoline Trifluoroacetic Acid]
19 | ≤ 100 | c1ccc(-c2nn3c(c2-c2ccnc4cc(-c5cc6ccccc6o5)ccc24)CCC3)nc1 [Example 48, 7-Benzofuran-2-yl-4-(2-pyridin-2-yl-5,6-dihydro-4H-pyrrolo[1,2-b]pyrazol-3-yl)quinoline Trifluoroacetic Acid]
20 | ≤ 100 | c1ccc(-c2nn3c(c2-c2ccnc4cc(-c5ccsc5)ccc24)CCC3)nc1 [Example 50, 4-(2-pyridin-2-yl-5,6-dihydro-4H-pyrrolo[1,2-b]pyrazol-3-yl)-7-thiophen-3-yl-quinoline Trifluoroacetic Acid]
21 | ≤ 100 | c1ccc(-c2nn3c(c2-c2ccnc4cc(-c5ccoc5)ccc24)CCC3)nc1 [Example 51, 7-Furan-3-yl-4-(2-pyridin-2-yl-5,6-dihydro-4H-pyrrolo[1,2-b]pyrazol-3-yl)quinoline Trifluoroacetic Acid]
22 | ≤ 10000 | c1ccc(-c2nn3c(c2-c2ccnc4cc(-c5ccc(C6CCCCC6)cc5)ccc24)CCC3)nc1 [Example 53, 7-(4-Cyclohexyl-phenyl)-4-(2-pyridin-2-yl-5,6-dihydro-4H-pyrrolo[1,2-b]pyrazol-3-yl)-quinoline Trifluoroacetic Acid]
23 | ≤ 1000 | Clc1ccc(-c2ccc3c(-c4c(-c5ccccn5)nn5c4CCC5)ccnc3c2)cc1Cl [Example 55, 7-(3,4-Dichlorophenyl)-4-(2-pyridin-2-yl-5,6-dihydro-4H-pyrrolo[1,2-b]pyrazol-3-yl)-quinoline]
24 | ≤ 100 | Cc1cccc(-c2nn3c(c2-c2ccnc4cc(-c5ccc(C(=O)O)cc5)ccc24)CCC3)n1 [Example 57, 4-{4-[2-(6-Methyl-pyridin-2-yl)-5,6-dihydro-4H-pyrrolo[1,2-b]pyrazol-3-yl]-quinolin-7-yl}-benzoic acid]
